From US9717737B2, “Vacuolin-1 as an inhibitor of autophagy and endosomal trafficking and the use thereof for inhibiting tumor progression” (The University of Hong Kong, priority 2014, dated 2017)

Key:
HeLa cells [1] = assay: Western blot analyses of LC3 and p62; format: cell-based
Protocol: (§1) Western blot and Immunofluorescence staining analyses—Both assays were performed as described previously (Lu et al., 2013).

HeLa cells [2] = assay: Immunofluorescence staining of GFP-LC3 puncta and RFP-Lamp1; format: cell-based; conditions: 1 μM
Protocol: as §1

HeLa cells [3] = assay: Transmission electron microscopy of treated cells; format: cell-based
Protocol: Cell preparation for transmission electron microscopy (TEM)—Cell preparation for TEM was performed as described previously (Mi et al., 2007).

[4] = tested on: HeLa, PC3, HepG2, MCF7, and A549 cells; format: cell-based
Protocol: MTT cell proliferation assay—Cells were treated in four replicates and seeded into 96-well plate. Following drug treatment, MTT solution of 20 μl for every 100 μl medium was added to wells and incubated for 2 hours, followed by the addition of 150 μL of the DMSO solution to each well. The final reaction product, a purple formazan solution, was detected by a microplate reader (Techan infinite M200) for absorbance at a wavelength of 570 nm and a reference wavelength of 630 nm.

HeLa cells [5] = assay: Lysosomal pH measurement (LysoSensor Green DND-189, LysoSensor Yellow/Blue DND-160); format: cell-based; conditions: 1 μM
Protocol: Lysosomal pH measurement—LysoSensor Green DND-189 is commonly used to measure the pH of acidic organelles, such as lysosomes, which become more fluorescent in acidic environments. Briefly, cells were loaded with 1 μMLysoSensor Green DND-189 in pre-warmed regular medium for 20 min at 37° C. Then the cells were washed twice with PBS and immediately analyzed by flow cytometry (collecting FL1 fluorescence and 10,000 cells were collected for each sample) or in a microplate reader (excitation/emission=485/530 nm).
Quantification of lysosomal pH was performed using a ratiometriclysosomal pH dye LysoSensor Yellow/Blue DND-160. The pH calibration curve was generated as described previously (Bankers-Fulbright et al., 2004). Briefly, cells were trypsinized and labeled with 2 μM Lysosensor Yellow/Blue DND-160 for 30 min at 37° C. in regular medium, and excessive dye was washed out using PBS. […] Quantitative comparisons were performed in a 96-well plate, and the fluorescence was measured with a microplate reader at 37° C. Light emitted at 440 and 535 nm in response to excitation at 340 and 380 nm were measured, respectively. The ratio of light emitted with 340 and 380 nm excitation was plotted against the pH values in IVIES buffer, and the pH calibration curve for the fluorescence probe was generated from the plot using Microsoft Excel.

HeLa cells [6] = assay: EGFR degradation assay; format: cell-based; conditions: HeLa cells treated with EGF
Protocol: (§2) Since the increase of lysosomal pH normally compromises the lysosomal activity, it was assessed whether vacuolin-1 affects the general lysosomal functions to inhibit autophagy maturation. […] Next, an epidermal growth factor receptor (EGFR) degradation assay was performed to examine whether vacuolin-1 affects the general endosomal-lysosomal pathway. In this assay, HeLa cells were treated with EGF in the presence or absence of vacuolin-1. After EGF binds to its receptors (EGFR), the receptor complex undergoes endocytosis and is targeted tolysosomes for degradation. […] Similarly, a DQ-BSA-green degradation assay was applied to measure the general endosomal-lysosomal degradation. DQ-BSA-green is a BSA labeled with a self-quenching fluorescent dye. After DQ-BSA-green is delivered to lysosomes via endocytosis, it is hydrolyzed into single dye-labeled peptides by lysosomal proteases, thereby relieving self-quenching and the fluorescence can subsequently be monitored by flow cytometry.

HeLa cells [7] = assay: DQ-BSA-green degradation assay (flow cytometry); format: cell-based; conditions: 1 μM
Protocol: as §2

CNE-1 and HONE-1 cells [8] = format: cell-based, human
Protocol: (§3) Although CQ has already been applied to treat a wide spectrum of human cancers, CQ induces ocular or renal toxicity and easily triggers drug resistance (Kimura et al., 2013). […] We first investigated the anti-tumor effects of vacuolin-1 in two nasopharyngeal carcinoma cell lines, CNE-1 and HONE-1. […] Alternatively, colony formation assay was performed to assess whether vacuolin-1 affects the ability of a single tumor cell to grow into a colony. […] We subsequently performed wound healing assay to assess whether vacuolin-1 affects the migration of tumor cells. […] Obviously, vacuolin-1 is an efficient anti-tumor agent in vitro.

CNE-1 and HONE-1 cells [9] = assay: Colony formation assay, nasopharyngeal carcinoma cells; format: cell-based, human; conditions: CNE-1 or HONE-1 cells
Protocol: as §3

CNE-1 and HONE-1 cells [10] = assay: Wound healing assay; format: cell-based, human
Protocol: as §3

[11] = tested on: human lung cancer stem cells (hLCSCs); assay: Cell proliferation of lung cancer stem cells; format: cell-based
From the text: (§4) Cancer stem cells (CSCs), a subpopulation of cells within tumors, actually drive tumor growth and recurrence. CSCs are resistant to many current cancer treatments, including chemo- and radiation therapy, thus they can survive these therapy to regenerate new tumors. […] Therefore, it is of great interest to assess the anti-tumor effects of vacuolin-1 on CSCs.

[12] = tested on: human lung cancer stem cells (hLCSCs); assay: Colony formation of hLCSCs; format: cell-based; conditions: >10 μM
From the text: as §4

[13] = tested on: human lung cancer stem cells (hLCSCs); assay: Invasion of hLCSCs; format: cell-based; conditions: >10 μM
From the text: as §4

[14] = tested on: human lung cancer stem cells (hLCSCs); assay: Tumor sphere formation of hLCSCs; format: cell-based; conditions: >10 μM
From the text: as §4

Acute toxicity in mice = format: in vivo; conditions: young adult mice
Protocol: We first assessed the ability of vacuolin-1 to suppress LCSC tumor xenograft in BALB/c nude mice. Briefly, 1×10^4 lung cancer stem cells (LCSCs, 3rd generation) were suspended in Matrigel (BD Biosciences) at a ratio of 1:1, and 200 iL of cells was subcutaneously injected into the back of nude mice. The tumor volume was measured every five days after injection and calculated from the formula: length×width×depth×π/6. Mice were removed from the study when their tumor volumes exceed 2000 mm^3 (FIG. 18A). […] Also, we tested the acute toxicity of vacuolin-1 in mice.

human cancer cell lines = assay: Combination with chemotherapy drugs in human cancer cell lines (FIG. 13); format: cell-based

Ic1cccc(/C=N/Nc2nc(N3CCOCC3)nc(N(c3ccccc3)c3ccccc3)n2)c1 [vacuolin-1]
fusion block between autophagosomes and lysosomes after removal of compound (reversibility) (HeLa cells [1]; 3 hours after removal from the medium, HeLa cells, 1 μM): completely relieved
potency in suppressing autophagy relative to CQ (HeLa cells [1]; HeLa and PC3 cells, 6 hours, LC3 and p62 western blot): at least ten times more potent than CQ
lipidated LC3-II level (HeLa cells [1]; HeLa cells, vacuolin-1 1 μM): markedly increased
p62 level (HeLa cells [1]; HeLa cells, vacuolin-1 1 μM): accumulated
GFP-LC3 puncta (HeLa cells [2]): greatly increased
co-localization of GFP-LC3 puncta with Lamp1 (HeLa cells [2]): did not co-localize with Lamp1
autophagic vacuoles under the electron microscope (HeLa cells [3]; HeLa cells in normal culture conditions, 1 μM): large numbers of autophagic vacuoles were observed
lysosome morphology in electron micrograph (HeLa cells [3]; HeLa cells, versus control): enlarged lysosomes
cell toxicity (MTT cell viability) [4]: much less cell toxicity than CQ
lysosomal pH, qualitative (LysoSensor Green DND-189) (HeLa cells [5]): raised lysosomal pH
lysosomal pH, quantitative ratiometric (LysoSensor Yellow/Blue DND-160) (HeLa cells [5]; control cells pH 4.7): 5.2 pH
EGF-triggered EGFR degradation (HeLa cells [6]): inhibited EGF-triggered EGFR degradation
degradation of DQ-BSA-green by lysosomes (HeLa cells [7]): markedly inhibited the degradation of BSA
cell toxicity, treatment alone (CNE-1 and HONE-1 cells [8]): little cell toxicity
synergistic effects on inhibiting tumor cell proliferation in combination with taxol, 5-FU, temsirolimus (CNE-1 and HONE-1 cells [8]): almost no synergistic effects
size and number of colonies generated from single cell (CNE-1 and HONE-1 cells [9]): dramatically reduced the size and number of colonies
migration of tumor cells (wound healing) (CNE-1 and HONE-1 cells [10]): efficiently suppressed the migration
cell proliferation of hLCSCs [11]: did not affect the cell proliferation
colony formation of hLCSCs [12]: almost completely inhibited
invasion of hLCSCs [13]: almost completely inhibited
tumor sphere formation of hLCSCs [14]: almost completely inhibited
activity and weight gain compared to control (Acute toxicity in mice; intraperitoneal 250 mg/kg, after two weeks): normal activity and weight gain
acute toxicity (Acute toxicity in mice; intraperitoneal injection 250 mg/kg): little acute toxicity
colony formation efficiency of cancer cells, combination with chemotherapy drugs (human cancer cell lines; FIG. 13B): greatly decreases
anti-tumor effects of chemotherapy drugs in combination (human cancer cell lines; human cancer cell lines, FIG. 13A): potently enhances
